Test results from patent US20250304549A1, “HYDROXYAMIDE DERIVATIVE AND USE THEREOF” (SICHUAN HUIYU PHARMACEUTICAL CO., LTD., priority 2022, published 2025).
Structures can show the parent of a compound that is named as a salt.

Assays:
[1] = target: LSD1 (Homo sapiens (Human), UniProt O60341); experiment: In vitro enzyme inhibition assay - LSD1 (HTRF); type: biochemical
[2] = target: pan-HDAC; experiment: In vitro enzyme inhibition assay - HDAC (HDAC-Glo I/II), pan-HDAC; type: biochemical
Summary of the method: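 Eight compound concentrations (5-fold steps from a 1 mM DMSO stock) tested against pan-HDAC, HDAC1 and HDAC8 with HDAC-Glo I/II reagents, luminescence read-out. Percent inhibition normalized to no-inhibitor and no-enzyme wells; IC50 derived by four-parameter logistic fit.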

[3] = target: HDAC8 (Homo sapiens (Human), UniProt Q9BY41); experiment: In vitro enzyme inhibition assay - HDAC (HDAC-Glo I/II), HDAC8; type: biochemical; conditions: read-out: HDAC IC50 (nM) HDAC 8
Experimental: 2. In Vitro Enzyme Inhibition Assay—HDAC
The effect of the compound on the enzymatic activity of pan-HDAC and two isoforms (HDAC1 and HDAC8) was examined using the HDAC-Glo I/II Assay and Screening System assay to assess the level of inhibition of HDAC protease activity and selectivity in each isoform. The proteins and detection reagents were from the HDAC-Glo™ I/II Assay and Screening System (Promega). A 1 mM stock solution of the compound was prepared in DMSO and diluted in a 5-fold gradient to create a series of 8 concentrations, and a specific volume of the highest concentration was diluted 25 times with HDAC Buffer to obtain 4× working solution of the compound. […] The 384-well plate was then read on a multifunctional microplate reader, with the Luminescence channel selected to record Luminescence values (RLU). The inhibition rate was calculated using the following formula: […]
Note: ‘Negative’ refers to the group without the inhibitor; ‘Blank’ refers to the group without the enzyme.
The IC50 value was calculated by fitting the inhibition rate by GraphPad Prism software, employing log (inhibitor) vs. response-Variable Slope (four parameters) model.

[4] = system: NCI-H1417 cells; experiment: In vitro cell inhibition assay - H1417 cell proliferation (CellTiter-Glo); type: cell-based; conditions: Homo sapiens, NCI-H1417, H1417 small cell lung cancer cell proliferation
Summary of the method: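 Cells exposed to 8 compound concentrations (5-fold dilutions) in BEGM with 10% FBS for 7 days at 37° C., 5% CO2. Viable cells measured by CellTiter-Glo luminescence; inhibition versus no-inhibitor and no-cell controls, IC50 fitted.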

[5] = system: NCI-H69 cells; experiment: In vitro cell inhibition assay - NCI-H69 cell proliferation (CellTiter-Glo); type: cell-based; conditions: Homo sapiens, NCI-H69, H69 small cell lung cancer cell proliferation
Summary of the method: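 Cells seeded at 1×10^3 per well and incubated overnight at 37° C., 5% CO2, then treated with 8-point 5-fold compound dilutions in RPMI-640 with 20% FBS for 7 days. Viable cells measured by CellTiter-Glo luminescence; IC50 fitted from inhibition relative to no-inhibitor and no-cell controls.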

Chain of HDAC8 (Q9BY41 whole entry): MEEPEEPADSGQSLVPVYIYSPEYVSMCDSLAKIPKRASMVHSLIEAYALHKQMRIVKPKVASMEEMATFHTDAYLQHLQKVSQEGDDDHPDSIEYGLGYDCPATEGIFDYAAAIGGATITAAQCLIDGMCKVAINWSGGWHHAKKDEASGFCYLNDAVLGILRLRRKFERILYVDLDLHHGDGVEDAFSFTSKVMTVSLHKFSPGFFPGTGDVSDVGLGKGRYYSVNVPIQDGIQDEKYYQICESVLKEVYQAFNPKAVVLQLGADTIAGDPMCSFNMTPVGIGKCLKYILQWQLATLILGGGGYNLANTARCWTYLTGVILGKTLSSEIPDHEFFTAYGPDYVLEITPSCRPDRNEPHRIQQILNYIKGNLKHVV

| IC50 [1] [nM] | IC50 [2] [nM] | IC50 [3] [nM] | IC50 [4] [nM] | IC50 [5] [nM] | SMILES |
| --- | --- | --- | --- | --- | --- |
| 0.23 | 6.66 | 129 | 50.1 |  | N#Cc1ccc(-c2c(-c3ccc(OCCCCCCC(=O)NO)c(O)c3)cnc(N3CCC(N)CC3)c2C#N)cc1F [Example 25, 7-(4-(6-(4-Aminopiperidin-1-yl)-5-cyano-4-(4-cyano-3-fluorophenyl)pyridin-3-yl)-2-hydroxyphenoxy)-N-hydroxyheptanamide hydrochloride] |
| 1.38 | 134 | 186 | 48.9 |  | COc1cc(N2CCC(N)CC2)nc(-c2ccc(C#N)c(F)c2)c1-c1ccc(OCCCCCCC(=O)NO)c(O)c1 [Example 27, 7-(4-(6-(4-aminopiperidin-1-yl)-2-(4-cyano-3-fluorophenyl)-4-methoxypyridin-3-yl)-2-hydroxyphenoxy)-N-hydroxyheptanamide hydrochloride] |
| > 1000 | 30.1 | 198 |  |  | N#Cc1ccc(-c2cc(OCc3ccc(/C=C/C(=O)NO)cc3)cc(N3CCC(N)CC3)n2)cc1F [Example 69, (E)-3-(4-(((2-(4-Aminopiperidin-1-yl)-6-(4-cyano-3-fluorophenyl)pyridin-4-yl)oxy)methyl)phenyl)-N-hydroxyacrylamide formate] |
| 81.2 | 0.25 |  | 7.2 | 7.48 | COc1ccc(-c2cnc(N3CCC(NCc4ccc(/C=C/C(=O)NO)cc4)CC3)c(C#N)c2-c2ccc(C(N)=O)nc2)cc1O [Example 259, (E)-3′-Cyano-5′-(3-hydroxy-4-methoxyphenyl)-2′-(4-((4-(3-(hydroxyamino)-3-oxoprop-1-en-1-yl)benzyl)amino)piperidin-1-yl)-[3,4′-bipyridine]-6-carboxamide formate] |
| 7.36 | 1.93 |  | 7.49 | 13.6 | COc1ccc(-c2ccc(N3CCC(NCc4ccc(/C=C/C(=O)NO)cc4)CC3)c(C#N)c2-c2ccc(C#N)nc2)cc1O [Example 267, (E)-3-(4-(((1-(3-Cyano-2-(6-cyanopyridin-3-yl)-3′-hydroxy-4′-methoxy-[1,l′-biphenyl]-4-yl)piperidin-4-yl)amino)methyl)phenyl)-N-hydroxyacrylamide formate] |
| 24.8 | 0.32 |  | 4.88 | 3.24 | COc1cc(F)c(-c2cnc(N3CCC(NCc4ccc(/C=C/C(=O)NO)cc4)CC3)c(F)c2-c2ccc(C#N)nc2)cc1O [Example 270, (E)-3-(4-(((1-(6-Cyano-3′-fluoro-5′-(2-fluoro-5-hydroxy-4-methoxyphenyl)-[3,4′-bipyridin]-2′-yl)piperidin-4-yl)amino)methyl)phenyl)-N-hydroxyacrylamide formate] |
| 35.1 | 0.83 |  | 2.19 | 1.8 | COc1ccc(-c2cnc(N3CCC(NCc4ccc(/C=C(\F)C(=O)NO)cc4)CC3)c(F)c2-c2ccc(C#N)nc2)cc1O [Example 271, (Z)-3-(4-(((1-(6-Cyano-3′-fluoro-5′-(3-hydroxy-4-methoxyphenyl)-[3,4′-bipyridin]-2′-yl)piperidin-4-yl)amino)methyl)phenyl-2-fluoro-N-hydroxyacrylamide formate] |
| 25.2 | 0.3 |  | 16.8 | 13.3 | COc1ccc(-c2cnc(N3CCC(NCc4ccc(/C=C/C(=O)NO)cc4)CC3)cc2-c2ccc(C#N)nc2)cc1O [Example 272, ((E)-3-(4-(((1-(6-Cyano-5′-(3-hydroxy-4-methoxyphenyl)-[3,4′-bipyridin]-2′-yl)piperidin-4-yl)amino)methyl)phenyl)-N-hydroxyacrylamide formate] |

Continued, compound first:

| SMILES | IC50 [1] [nM] | IC50 [2] [nM] | IC50 [3] [nM] | IC50 [4] [nM] | IC50 [5] [nM] |
| --- | --- | --- | --- | --- | --- |
| N#Cc1ccc(-c2nc(N3CCC(N)CC3)cc(O)c2-c2ccc(OCCCCCCC(=O)NO)c(O)c2)cc1F [Example 19, 7-(4-(6-(4-aminopiperidin-1-yl)-2-(4-cyano-3-fluorophenyl)-4-hydroxypyridin-3-yl)-2-hydroxyphenoxy)-N-hydroxyheptanamide hydrochloride] | 0.86 | 174 | 221 | 2820 |  |
| N#Cc1ccc(-c2cc(C(=O)N3C4CCC3CC(N)C4)sc2-c2ccc(OCCCCCCC(=O)NO)c(O)c2)cc1F (stereo not shown) [Example 32, 7-(4-(5-(3-amino-8-azabicyclo[3.2.1]octane-8-carbonyl)-3-(4-cyano-3-fluorophenyl)thiophen-2-yl)-2-hydroxyphenoxy)-N-hydroxyheptanamide hydrochloride] | 0.35 | 14 | 279 | 54.7 |  |
| COc1ccc(-c2cnc(N3CCC(N)(CCc4ccc(/C=C/C(=O)NO)cc4)CC3)c(C#N)c2-c2ccc(C#N)c(F)c2)cc1O [Example 86, (E)-3-(4-(2-(4-amino-1-(3-cyano-4-(4-cyano-3-fluorophenyl)-5-(3-hydroxy-4-methoxyphenyl)pyridin-2-yl)piperidin-4-yl)ethyl)phenyl)-N-hydroxyacrylamide formate] | 9.46 | 13.8 | 578 | 15.4 | 145 |
| COc1ccc(-c2cnc(N3CCC(NCc4ccc(/C=C/C(=O)NO)cc4)CC3)c(C#N)c2-c2cnc(C#N)cn2)cc1O [Example 256, (E)-3-(4-(((1-(3-Cyano-4-(5-cyanopyrazin-2-yl)-5-(3-hydroxy-4-methoxyphenyl)pyridin-2-yl)piperidin-4-yl)amino)methyl)phenyl)-N-hydroxyacrylamide formate] | 28.8 | 0.26 |  | 8.48 | 8.63 |
| COc1ccc(-c2cnc(N3CCC(NCc4ccc(/C=C/C(=O)NO)c(OC)c4)CC3)c(C#N)c2-c2ccc(C#N)nc2)cc1O [Example 257, (E)-3-(4-(((1-(3′,6-Dicyano-5′-(3-hydroxy-4-methoxyphenyl)-[3,4′-bipyridin]-2′-yl)piperidin-4-yl)amino)methyl)-2-methoxyphenyl)-N-hydroxyacrylamide formate] | 7.93 | 0.59 |  | 7.61 | 11.2 |
| COc1ccc(-c2cnc(N3CCC(NCc4ccc(/C=C/C(=O)NO)cc4)CC3)c(CC#N)c2-c2ccc(C#N)nc2)cc1O [Example 261, (E)-3-(4-(((1-(6-Cyano-3′-(cyanomethyl)-5′-(3-hydroxy-4-methoxyphenyl)-[3,4′-bipyridin]-2′-yl)piperidin-4-yl)amino)methyl)phenyl)-N-hydroxyacrylamide formate] | 3.18 | 1.42 |  | 19 | 8.47 |
| COc1cc(F)c(-c2cnc(N3CCC(NCc4ccc(/C=C/C(=O)NO)cc4)CC3)c(C)c2-c2ccc(C#N)nc2)cc1O [Example 262, (E)-3-(4-(((1-(6-Cyano-5′-(2-fluoro-5-hydroxy-4-methoxyphenyl)-3′-methyl-[3,4′-bipyridin]-2′-yl)piperidin-4-yl)amino)methyl)phenyl)-N-hydroxyacrylamide formate] | 7.04 | 0.61 |  | 11.8 | 11.1 |
| COc1ccc(-c2cnc(N3CCC(NCc4ccc(/C=C/C(=O)NO)cc4F)CC3)c(F)c2-c2ccc(C#N)nc2)cc1O [Example 269, (E)-3-(4-(((1-(6-Cyano-3′-fluoro-5′-(3-hydroxy-4-methoxyphenyl)-[3,4′-bipyridin]-2′-yl)piperidin-4-yl)amino)methyl)-3-fluorophenyl)-N-hydroxyacrylamide hydrochloride] | 193 | 0.93 |  | 2.66 | 1.87 |
